{
  "source": "paper PMC5769417",
  "about": "“Single- and Multiple-Dose Trials to Determine the Pharmacokinetics, Safety, Tolerability, and Sex Effect of Oral Ginsenoside Compound K in Healthy Chinese Volunteers” (Frontiers in Pharmacology, 2018)",
  "key": {"[1]": {"test": "Single-dose trial, plasma pharmacokinetics", "format": "in vivo, human", "settings": "single-dose trial, fasting", "method": "Single-dose pharmacokinetics: The single-dose trial was performed first. […] Drinking before and after medication was prohibited for 2 h, but the amount and time of drinking were not strictly controlled at other times. All subjects had standard lunch and dinner (unified light diet) after medication 4 and 10 h. Single-dose pharmacokinetics: […] We preserved 8 ml specimens into 10 ml centrifuge tubes and stored at −70°C for PK assessment. All samples were preserved at −70°C and analyzed with a LC-MS/MS (API 4000 LC-MS/MS, ABI Company, Foster City, CA, USA) at the Institute of Clinical Pharmacology, Central South University (Changsha, China). […] An aqueous solution of a stable internal standard (IS for CK: digoxin, Shijiaoke Biological Technology Co. Ltd., Beijing, China; IS for PPD: coumarin, Sigma-Aldrich, St. Louis, USA) and 1 M phosphate buffer were added to 0.5 ml of thawed sample, and analytical standards and quality control (QC) samples were prepared in the same matrix. All samples were treated with 2 ml of methyl tert-butyl ether (MTBE, CNW technologies GmbH, Duesseldorf, Germany) to precipitate the bulk of plasma proteins. After mechanical shock by mixing for 10 min and a subsequent centrifugation (4,000 rpm, 4°C, 10 min), 1.4 ml of the supernatant was transferred and blow-dried with nitrogen in a water bath at 40°C. Lastly, the residue was dissolved in 100 μl of mobile phase and then was subjected to a mechanical shock by mixing, and centrifuged. The supernatant was subsequently injected into the column for analysis. […] Accuracy and precision of the assay were determined by evaluating the performance of the assay controls. Over the quantification range, the accuracy of the QC samples varied from 85 to 115% and the intra- and inter-assay imprecision was <15%. PK parameters were derived according to noncompartmental analysis and actual elapsed time from dosing by WinNonlin version 6.1 (Pharsight Corporation, Mountain View, CA, USA). […] The area under the curve (AUC) from time zero to the last time point (AUClast) and the AUC extrapolated to infinity (AUCinf) were calculated using the linear trapezoidal rule. The slope (elimination rate constant, K) of the terminal phase of the plasma concentration-time profile was determined, using a weighting factor of 1, by the method of least squares (log-linear regression of at least three data points). The t1/2 was estimated as (ln2)/K. […] The apparent volume of distribution (V/F) was equal to (CL/F)/K. The mean residence time (MRT) was calculated as the area under the first moments curve (AUMC) divided by AUC. The dose-normalized PK parameters e.g., Cmax/D and AUClast/D, were obtained by dividing each PK result by the administered dose. The cumulative excretion rate was calculated as the amount of unchanged drug in the urine over a time interval divided by the dose and was expressed as thousand points (‰)."}, "[2]": {"test": "Multiple-dose trial, plasma pharmacokinetics", "format": "in vivo, human", "method": "Multiple-dose pharmacokinetics: […] Multiple-dose pharmacokinetics: […] All samples were preserved at −70°C and analyzed with a LC-MS/MS (API 4000 LC-MS/MS, ABI Company, Foster City, CA, USA) at the Institute of Clinical Pharmacology, Central South University (Changsha, China). […] An aqueous solution of a stable internal standard (IS for CK: digoxin, Shijiaoke Biological Technology Co. Ltd., Beijing, China; IS for PPD: coumarin, Sigma-Aldrich, St. Louis, USA) and 1 M phosphate buffer were added to 0.5 ml of thawed sample, and analytical standards and quality control (QC) samples were prepared in the same matrix. All samples were treated with 2 ml of methyl tert-butyl ether (MTBE, CNW technologies GmbH, Duesseldorf, Germany) to precipitate the bulk of plasma proteins. After mechanical shock by mixing for 10 min and a subsequent centrifugation (4,000 rpm, 4°C, 10 min), 1.4 ml of the supernatant was transferred and blow-dried with nitrogen in a water bath at 40°C. Lastly, the residue was dissolved in 100 μl of mobile phase and then was subjected to a mechanical shock by mixing, and centrifuged. The supernatant was subsequently injected into the column for analysis. […] Accuracy and precision of the assay were determined by evaluating the performance of the assay controls. Over the quantification range, the accuracy of the QC samples varied from 85 to 115% and the intra- and inter-assay imprecision was <15%. […] The area under the curve (AUC) from time zero to the last time point (AUClast) and the AUC extrapolated to infinity (AUCinf) were calculated using the linear trapezoidal rule. The slope (elimination rate constant, K) of the terminal phase of the plasma concentration-time profile was determined, using a weighting factor of 1, by the method of least squares (log-linear regression of at least three data points). The t1/2 was estimated as (ln2)/K. […] The apparent volume of distribution (V/F) was equal to (CL/F)/K. The mean residence time (MRT) was calculated as the area under the first moments curve (AUMC) divided by AUC. The dose-normalized PK parameters e.g., Cmax/D and AUClast/D, were obtained by dividing each PK result by the administered dose. The cumulative excretion rate was calculated as the amount of unchanged drug in the urine over a time interval divided by the dose and was expressed as thousand points (‰). On day 15 in the multiple-dose trial, the PK parameters, such as t1/2, CL/F, and V/F at steady state were calculated using the same method as that used for the single-dose trial. In addition, the Tmax at steady state (Tmax,ss), Cmax at steady state (Cmax,ss), and Cmin,ss were obtained from experimental observation after the steady state during the multiple-dose trial. […] The average steady-state drug concentration (Cavg) is calculated as AUCτ/τ, and the fluctuation ratio was calculated as (Cmax,ss − Cmin,ss)/Cavg. The accumulation index was calculated using dosing interval and elimination rate constant as in the following equation: 1/(1 − e^−Kτ)."}, "[3]": {"settings": "100 mg oral after breakfast, Day 1"}, "[4]": {"settings": "100 mg qd oral after breakfast, Day 15"}, "[5]": {"settings": "200 mg oral after breakfast, Day 1"}, "[6]": {"settings": "200 mg qd oral after breakfast, Day 15"}, "[7]": {"settings": "400 mg oral after breakfast, Day 1"}, "[8]": {"settings": "400 mg qd oral after breakfast, Day 15"}},
  "data": [
    {"molecule": "CC(C)=CCC[C@](C)(O)[C@H]1CC[C@]2(C)[C@@H]1[C@H](O)C[C@@H]1[C@@]3(C)CC[C@H](O)C(C)(C)[C@@H]3CC[C@]12C", "note": "[20(S)-PPD, 20(S)-protopanaxadiol]", "values": [
      {"measurement": "AUClast", "setting": "[1]; 25 mg oral", "value": "32.4 ± 26.2", "unit": "ng·h/mL"},
      {"measurement": "Cmax", "setting": "[1]; 25 mg oral", "value": "1.6 ± 1.2", "unit": "ng/mL"},
      {"measurement": "Tmax, median (range)", "setting": "[1]; 25 mg oral", "value": "12.0 (8.0–24.0) h"},
      {"measurement": "AUClast", "setting": "[1]; 50 mg oral", "value": "43.9 ± 12.0", "unit": "ng·h/mL"},
      {"measurement": "Cmax", "setting": "[1]; 50 mg oral", "value": "1.8 ± 0.6", "unit": "ng/mL"},
      {"measurement": "Tmax, median (range)", "setting": "[1]; 50 mg oral", "value": "24.0 (12.0–24.0) h"},
      {"measurement": "AUClast", "setting": "[1]; 100 mg oral", "value": "167.6 ± 125.0", "unit": "ng·h/mL"},
      {"measurement": "Cmax", "setting": "[1]; 100 mg oral", "value": "6.3 ± 4.2", "unit": "ng/mL"},
      {"measurement": "Tmax, median (range)", "setting": "[1]; 100 mg oral", "value": "24.0 (12.0–36.0) h"},
      {"measurement": "AUClast", "setting": "[1]; 200 mg oral", "value": "117.8 ± 94.9", "unit": "ng·h/mL"},
      {"measurement": "Cmax", "setting": "[1]; 200 mg oral", "value": "3.5 ± 2.7", "unit": "ng/mL"},
      {"measurement": "Tmax, median (range)", "setting": "[1]; 200 mg oral", "value": "24.0 (6.0–36.0) h"},
      {"measurement": "AUClast", "setting": "[1]; 400 mg oral", "value": "157.1 ± 174.6", "unit": "ng·h/mL"},
      {"measurement": "Cmax", "setting": "[1]; 400 mg oral", "value": "4.8 ± 4.3", "unit": "ng/mL"},
      {"measurement": "Tmax, median (range)", "setting": "[1]; 400 mg oral", "value": "24.0 (5.0–48.0) h"},
      {"measurement": "AUClast", "setting": "[1]; 600 mg oral", "value": "269.8 ± 251.4", "unit": "ng·h/mL"},
      {"measurement": "Cmax", "setting": "[1]; 600 mg oral", "value": "9.5 ± 9.8", "unit": "ng/mL"},
      {"measurement": "Tmax, median (range)", "setting": "[1]; 600 mg oral", "value": "36.0 (24.0–72.0) h"},
      {"measurement": "AUClast", "setting": "[1]; 800 mg oral", "value": "179.1 ± 171.0", "unit": "ng·h/mL"},
      {"measurement": "Cmax", "setting": "[1]; 800 mg oral", "value": "5.1 ± 5.3", "unit": "ng/mL"},
      {"measurement": "Tmax, median (range)", "setting": "[1]; 800 mg oral", "value": "30.0 (3.0–72.0) h"},
      {"measurement": "AUClast", "setting": "[2]; [3]", "value": "60.6 ± 44.9", "unit": "ng·h/mL"},
      {"measurement": "Cmax", "setting": "[2]; [3]", "value": "1.8 ± 1.1", "unit": "ng/mL"},
      {"measurement": "Tmax, median (range)", "setting": "[2]; [3]", "value": "24.0 (24.0–36.0) h"},
      {"measurement": "AUClast", "setting": "[2]; [4]", "value": "154.5 ± 81.8", "unit": "ng·h/mL"},
      {"measurement": "Cmax", "setting": "[2]; [4]", "value": "5.0 ± 2.5", "unit": "ng/mL"},
      {"measurement": "Tmax, median (range)", "setting": "[2]; [4]", "value": "5.5 (0.3–24.0) h"},
      {"measurement": "AUClast", "setting": "[2]; [5]", "value": "54.1 ± 58.8", "unit": "ng·h/mL"},
      {"measurement": "Cmax", "setting": "[2]; [5]", "value": "2.3 ± 3.4", "unit": "ng/mL"},
      {"measurement": "Tmax, median (range)", "setting": "[2]; [5]", "value": "7.0 (4.0-48.0) h"},
      {"measurement": "AUClast", "setting": "[2]; [6]", "value": "170.9 ± 191.0", "unit": "ng·h/mL"},
      {"measurement": "Cmax", "setting": "[2]; [6]", "value": "5.7 ± 6.1", "unit": "ng/mL"},
      {"measurement": "Tmax, median (range)", "setting": "[2]; [6]", "value": "6.0 (0.3–24.0) h"},
      {"measurement": "AUClast", "setting": "[2]; [7]", "value": "133.1 ± 127.6", "unit": "ng·h/mL"},
      {"measurement": "Cmax", "setting": "[2]; [7]", "value": "4.3 ± 3.6", "unit": "ng/mL"},
      {"measurement": "Tmax, median (range)", "setting": "[2]; [7]", "value": "16.0 (3.0–36.0) h"},
      {"measurement": "AUClast", "setting": "[2]; [8]", "value": "463.1 ± 512.3", "unit": "ng·h/mL"},
      {"measurement": "Cmax", "setting": "[2]; [8]", "value": "11.0 ± 10.2", "unit": "ng/mL"},
      {"measurement": "Tmax, median (range)", "setting": "[2]; [8]", "value": "5.5 (0.5–8.0) h"},
      {"measurement": "concentration of metabolite relative to the parent drug", "setting": "[2]; Day 1, 100–400 mg CK", "value": "0.08–0.16%"}
    ]}
  ]
}
